Data taken from patent publication US8093286B2, “Methods for treatment with bucindolol based on genetic targeting” (The Regents of the University of Colorado, a body corporate, priority 2004, dated 2012).
Where “and” joins values, the source holds several entries; their conditions need not be identical. Identical values can stand only once. Counter-ions that a name gives are not always drawn. Marks after values point to notes of the source that are not given here.

Tested on: patients with Class III/IV heart failure
Test: BEST trial, bucindolol vs placebo, clinical outcomes incl. DNA substudy and norepinephrine-change analyses
Format: in vivo
Conditions: for hazard ratio for hospitalizations, bucindolol vs placebo: adjusted for position 49; for Crude mortality: bucindolol group; for Mortality (M) hazard ratio, NE change quartile 2nd/1st / Mortality (M) hazard ratio, NE change quartile 3rd/1st / Mortality (M) hazard ratio, NE change quartile 4th/1st / Mortality + CHF hospitalization (M + H) hazard ratio, NE change quartile 2nd/1st / Mortality + CHF hospitalization (M + H) hazard ratio, NE change quartile 3rd/1st / Mortality + CHF hospitalization (M + H) hazard ratio, NE change quartile 4th/1st: within bucindolol group; for hazard ratio for survival, bucindolol vs placebo: adjusted for position 49 variants, age, sex, race
Source text: Patients who participated in the Beta Blocker Evaluation of Survival Trial (BEST), (Lowes et al., 2002) and who consented for DNA substudies, were genotyped at the coding β1AR polymorphic sites. Enrollment in BEST was from May 31, 1995 to Dec. 31, 1998; the study design has been described in detail elsewhere (BEST Trial Investigators, 2001; and Lowes et al., 2002). Briefly, the study was a randomized, multicenter, placebo-controlled trial of the 3rd generation, nonselective β-blocker-vasodilator bucindolol (Bristow, 2000) in 2708 patients with Class III/IV heart failure (BEST Trial Investigators, 2001). Those receiving the active drug were administered 3 mg bucindolol twice daily for the first week, and up-titrated as tolerated on a weekly basis to 50 mg twice daily (or 100 mg twice daily for patients weighing >75 kg). Of the 2708 patients, 1040 consented for the substudy and had adequate DNA prepared from a blood sample. The study was approved by the BEST DNA Oversight Committee and the University of Cincinnati Institutional Review Board.
DNA was extracted from whole blood using standard techniques (Jones, 1963). Genotyping was performed using methods exactly as previously described in detail (Small et al., 2002). For the β1AR, variations at coding nucleotides 145 and 1165 were delineated, which correspond to amino acids 49 and 389. These alleles are designated as β1-Ser49, β1-Gly49 and β1-Arg389, β1-Gly389. All the DNA samples were successfully genotyped at the β1AR-389 locus and 1030 were successfully genotyped at β1AR-49.
The primary endpoints were all-cause mortality, hospitalizations adjudicated by an endpoints committee (BEST Trial Investigators, 2001) to be due to heart failure, and the combined endpoint of death or heart failure hospitalization. The variants at amino acid position 389 of the β1AR (Arg and Gly) were considered the primary genotypes hypothesized to influence […] efficacy. Continuous clinical variables are reported as mean ±SD, and comparisons were by t-test or Wilcoxon rank-sum tests. Categorical variables are reported as proportions and comparisons were by chi-square or Fisher's exact tests. Cumulative survival curves were constructed by Kaplan-Meier methods (Kaplan et al., 1958); and SAS (r) proprietary software, release 6.12. Cary, N.C.: SAS Institute, 1996). The Cox proportional-hazards regression model was used to examine the effects of treatment stratified by the indicated genotype. Results were adjusted for age, sex, race, and, as indicated, the β1-Gly49 polymorphism. Because of the limited number of comparisons, and an a priori hypothesis that was based on cell, transgenic, and other human studies […] Perez et al., 2003); and Wagoner et al., 2002), the P values <0.05 were considered to as significant, without adjustments for multiple comparisons.
Norepinephrine levels at baseline, or the change at 3 months were used to predict survival and the combined endpoint of mortality+CHF hospitalization. Absolute and log transformed data were initially analyzed. Because of skewness in norepinephrine levels natural log (Ln) transformed data were used in multivariate Cox proportional hazards regression models.
A Maximum Likelihood based method (Kalbfleisch et al., 1980) was used to categorize changes in norepinephrine into 3 groups for prediction of mortality or mortality+CHF hospitalization. This partitioning method finds the optimal split of norepinephrine values that maximize the likelihood of the resulting Cox proportional hazards model. In addition, a flexible cubic spline analysis (Green et al., 1994) was used to determine the shape and significance level of the relationship of norepinephrine changes at 3 months to survival.

[1] = 1st quartile of absolute NE change
[2] = 2nd quartile of absolute NE change
[3] = 3rd quartile of absolute NE change
[4] = 4th quartile of absolute NE change
[5] = BEST α2c DEL carrier (n = 207/1036)
[6] = BEST β1 389Arg/Arg + α2c DEL carriers (n = 73/1036)
[7] = BEST β1 389Arg/Arg + α2c WT/WT (n = 418/1036)
[8] = BEST β1 389 Gly carriers + DEL carriers (n = 134/1036)
[9] = BEST β1 389 Gly carriers + α2c WT/WT (n = 411/1036)
[10] = absolute NE change at 3 months, pg/ml
[11] = β1 389Arg/Arg and α2c WT/WT patients

CC(C)(Cc1c[nH]c2ccccc12)NCC(O)COc1ccccc1C#N (stereo not drawn) [bucindolol, (2-{2-hydroxy-3{{2-(3-indolyl)-1,1-dimethylethyl}amino}propoxy}-benzonitrile hydrochloride)]
bucindolol/placebo hazard ratio, mortality (M) (1st quartile of % NE change): 1.03 | bucindolol/placebo hazard ratio, mortality + CHF hospitalization (M + H) (1st quartile of % NE change): 1.14 | bucindolol/placebo hazard ratio, mortality (M) [1]: 0.96 | bucindolol/placebo hazard ratio, mortality + CHF hospitalization (M + H) [1]: 1.19 | bucindolol/placebo hazard ratio, mortality (M) (2nd quartile of % NE change): 0.98 | bucindolol/placebo hazard ratio, mortality + CHF hospitalization (M + H) (2nd quartile of % NE change): 1.39 | bucindolol/placebo hazard ratio, mortality (M) [2]: 0.98 | bucindolol/placebo hazard ratio, mortality + CHF hospitalization (M + H) [2]: 1.30 | bucindolol/placebo hazard ratio, mortality (M) (3rd quartile of % NE change): 0.56 | bucindolol/placebo hazard ratio, mortality + CHF hospitalization (M + H) (3rd quartile of % NE change): 0.65 | bucindolol/placebo hazard ratio, mortality (M) [3]: 0.63 | bucindolol/placebo hazard ratio, mortality + CHF hospitalization (M + H) [3]: 0.58 | bucindolol/placebo hazard ratio, mortality (M) (4th quartile of % NE change): 0.90 | bucindolol/placebo hazard ratio, mortality + CHF hospitalization (M + H) (4th quartile of % NE change): 0.66 | bucindolol/placebo hazard ratio, mortality (M) [4]: 0.80 | bucindolol/placebo hazard ratio, mortality + CHF hospitalization (M + H) [4]: 0.74 | hazard ratio of subsequent mortality with norepinephrine reduction at 3 months (likelihood analysis) (153 bucindolol subjects, NE reduction ≧244.5 pg/ml): 1.69 | hazard ratio for hospitalizations, bucindolol vs placebo (Arg389 homozygotes): 0.63 | HF Hospitalization hazard ratio, bucindolol vs placebo [5]: 0.76; 67 Ev | Mortality + HF Hospitalization hazard ratio, bucindolol vs placebo [5]: 0.89; 84 Ev | HF Hospitalization hazard ratio, bucindolol vs placebo (BEST α2c WT/WT (n = 829/1036)): 0.74; 267 Ev | Mortality + HF Hospitalization hazard ratio, bucindolol vs placebo (BEST α2c WT/WT (n = 829/1036)): 0.72; 341 Ev | Mortality hazard ratio, bucindolol vs placebo (BEST α2c WT/WT (n = 829/1036)): 0.70; 155 Ev | HF Hospitalization hazard ratio, bucindolol vs placebo (BEST β1 389Arg/Arg (n = 493/1040), hydrochloride): 0.64 and 0.64; 154 | HF Hospitalization hazard ratio, bucindolol vs placebo [6]: 0.81; 73 Ev | Mortality + HF Hospitalization hazard ratio, bucindolol vs placebo [6]: 0.85; 34 Ev | Mortality hazard ratio, bucindolol vs placebo [6]: 0.71; 13 Ev | HF Hospitalization hazard ratio, bucindolol vs placebo [7]: 0.59; 126 Ev | Mortality + HF Hospitalization hazard ratio, bucindolol vs placebo [7]: 0.61; 156 Ev | Mortality hazard ratio, bucindolol vs placebo [7]: 0.60; 69 Ev | HF Hospitalization hazard ratio, bucindolol vs placebo [8]: 0.62; 134 Ev | Mortality + HF Hospitalization hazard ratio, bucindolol vs placebo [8]: 0.81; 50 Ev | Mortality hazard ratio, bucindolol vs placebo [8]: 1.35; 24 Ev | HF Hospitalization hazard ratio, bucindolol vs placebo [9]: 0.93; 411 Ev | Mortality + HF Hospitalization hazard ratio, bucindolol vs placebo [9]: 0.86; 185 Ev | Mortality hazard ratio, bucindolol vs placebo [9]: 0.82; 86 Ev | Number of deaths (%) (Bucindolol Incr subgroup, n = 137): 43 (31%)* | Number of deaths (%) (Bucindolol Inter subgroup, n = 551): 114 (21%) | Number of deaths (%) (Bucindolol Redxn subgroup, n = 153): 52 (34%)* | hazard ratio for hospitalizations, bucindolol vs placebo (Gly389 carriers): 0.85 | Crude mortality (1st quartile of % NE change (< −30.2)): 25.2% | Crude mortality (1st quartile of absolute NE change (< −144 pg/ml)): 26.1% | Crude mortality (2nd quartile of % NE change (−30.2 to < −2.5)): 26.0% | Crude mortality (2nd quartile of absolute NE change (−144 to < −9 pg/ml)): 25.7% | Crude mortality (3rd quartile of % NE change (−2.5 to 31.1)): 18.8% | Crude mortality (3rd quartile of absolute NE change (−9 to 111 pg/ml)): 17.7* % | Crude mortality (4th quartile of % NE change (> 31.1)): 29.1% | Crude mortality (4th quartile of absolute NE change (> 111 pg/ml)): 28.6% | increased risk of subsequent mortality with marked norepinephrine reduction at 3 months (bucindolol subgroup with NE reduction ≧244.5 pg/ml (Group 1) vs intermediate change group, hydrochloride): 1.7 fold and 1.65 fold | Mortality hazard ratio, Arg/Arg:Gly carrier (bucindolol-treated, BSL NE 64-356 pg/ml (146)): 0.90 | Mortality hazard ratio, Arg/Arg:Gly carrier (bucindolol-treated, BSL NE 358-545 pg/ml (144)): 0.74 | Mortality hazard ratio, Arg/Arg:Gly carrier (bucindolol-treated, BSL NE 546-2571 pg/ml (149)): 0.68 | Mortality hazard ratio, Arg/Arg:Gly carrier (bucindolol-treated, Group 1, change in NE @ 3 mos <−244 (70)): 1.07 | Mortality hazard ratio, Arg/Arg:Gly carrier (bucindolol-treated, Group 2, change in NE @ 3 mos −244 to 145 (248)): 0.82 | Mortality hazard ratio, Arg/Arg:Gly carrier (bucindolol-treated, Group 3, change in NE @ 3 mos >145 (54)): 0.36 | relatively better mortality reduction of Arg homozygotes vs Gly carriers (bucindolol-treated, increasing norepinephrine group (>145 pg/ml)): 64% | Mortality (M) hazard ratio, NE change quartile 2nd/1st (% NE change at 3 months): 1.14 | Mortality (M) hazard ratio, NE change quartile 3rd/1st (% NE change at 3 months): 0.77 | Mortality (M) hazard ratio, NE change quartile 4th/1st (% NE change at 3 months): 1.19 | Mortality + CHF hospitalization (M + H) hazard ratio, NE change quartile 2nd/1st (% NE change at 3 months): 1.18 | Mortality + CHF hospitalization (M + H) hazard ratio, NE change quartile 3rd/1st (% NE change at 3 months): 0.91 | Mortality + CHF hospitalization (M + H) hazard ratio, NE change quartile 4th/1st (% NE change at 3 months): 1.18 | Mortality (M) hazard ratio, NE change quartile 2nd/1st [10]: 0.99 | Mortality (M) hazard ratio, NE change quartile 3rd/1st [10]: 0.66 | Mortality (M) hazard ratio, NE change quartile 4th/1st [10]: 1.15 | Mortality + CHF hospitalization (M + H) hazard ratio, NE change quartile 2nd/1st [10]: 1.00 | Mortality + CHF hospitalization (M + H) hazard ratio, NE change quartile 3rd/1st [10]: 0.83 | Mortality + CHF hospitalization (M + H) hazard ratio, NE change quartile 4th/1st [10]: 1.10 | increase in CV mortality (α2c DEL 322-325 and β1 389Gly carriers): 36% | increase in cardiovascular mortality (α2c DEL 322-325 carriers): 3% | increase in all-cause mortality (α2c DEL 322-325 carriers who are β1 389Gly carriers, hydrochloride): 36% and 35% | reduction in cardiovascular mortality (α2c WT/WT patients): 41% | reduction in mortality plus HF hospitalization (α2c wild type patients): 28% | reduction in all-cause mortality (α2cAR wild type (WT/WT) patients, hydrochloride): 29% and 30% | reduction in mortality (α2cAR wild type patients who are β1 389Gly carriers (nonsignificant)): 22% | mortality reduction (α2cAR-Del322-325 carriers with β1AR-389Arg/Arg): 18% | increase in all-cause mortality (α2cAR-Del322-325 carriers, hydrochloride): 10% and 9% | reduction in all-cause mortality [11]: 40% | reduction in cardiovascular mortality [11]: 47% | reduction in mortality + heart failure hospitalization [11]: 39% | reduction in cardiovascular mortality (β1 389Arg/Arg patients): 46% | reduction in all-cause mortality (β1 389Gly carriers (nonsignificant)): 10% | reduction in cardiovascular mortality (β1 389Gly carriers (p=NS)): 22% | reduction in HF hospitalization (β1-389 Arg/Arg + α2c wild type patients): 41% | hazard ratio for survival, bucindolol vs placebo (β1-Arg389 homozygotes): 0.62 | hazard ratio for survival, bucindolol vs placebo (β1-Gly389 carriers): 0.89 | reduction in all-cause mortality (improvement in survival) (β1AR-389Arg/Arg patients): 38%
